According to patent US9486447B2, “Compositions and methods for controlling neuronal excitation” (The General Hospital Corporation, priority 2011, dated 2016):

Tests used:
[1] = system: larvae and adult zebrafish; assay: Long-term toxicity testing in zebrafish; format: in vivo
Experimental: Optovin is a rhodanine-containing small molecule with no previously annotated biological activity (FIG. 1D). […] Motor behavior in optovin-treated animals is elicited by radiation stimulus intensitites greater than 1.6 μW/mm^2 (FIG. 1G). […] To determine the long-term effects of optovin exposure on development, behavior and survival, the development, behavior and survival of larvae and adult zebrafish exposed to optovin (10 μM) for 96 hours were analyzed. […] Thus, optovin is a novel behavior-modifying compound that causes rapid and reversible motor excitation in response to violet light stimuli.
To determine the long-term effects of optovin exposure on development, behavior and survival, the development, behavior and survival of larvae (n=150) and adult zebrafish (n=2) exposed to 10 μM optovin for 96 hours was analyzed.

[2] = molecular target: T1, hTRPA1 C633S/C856S double mutant (Homo sapiens, UniProt O75762, C633S/C856S); assay: Calcium imaging of transfected HEK cells; format: cell-based; conditions: compared with WT channels
T1 construct: expressed in transfected cells; host or cells: HEK293
Experimental: (§1) Reactive electrophilic compounds activate TRPA1 channels through the covalent modification of specific cysteine residues including those at amino acid positions 621, 633, and 856. Point mutations in these cysteines can reduce hTRPA1 activation by specific ligands without disrupting overall channel function^39,40. To determine if these cysteine residues are also important for TRPA1 activation by optovin, intracellular calcium levels were measured in cells transfected with wildtype and mutant hTRPA1 channels. […] Rhodanine and hydantoin are photoelectric moieties used in photovoltaic panels and other photochemical applications^41,42. Nevertheless, photosensitization alone is insufficient to grant optovin its unusual biological activity. For example, optovin is phenotypically unique compared to 171 additional rhodanine-containing compounds contained in the screening library (data not shown).
(§2) HEK293 cells were plated onto poly-lysine-coated glass bottom culture dishes (MatTek Corp), and grown in Dulbecco's Modified Eagle's Medium (DMEM, Sigma) supplemented with 10% fetal bovine serum and 100 U/mL penicillin and 100 μg/ml streptomycin. After 24 hrs, cells were transfected, according to manufacturer's instructions, in Opti-MEM media, using 4 μl lipofectamine 2000 (Invitrogen), 0.5 ug EGFP in pcDNA, and 0.3 μg TrpA1 DNA per dish. Media was replaced after 2 hours, and cells were cultured for an additional 17 hours. As previously described for neurons, HEK cells were washed with assay buffer (HBSS Gibco 14025, supplemented with 9 mM HEPES, 11 mM D-glucose, 0.1% fatty-acid free BSA, pH 7.3) and incubated for 1 h with 2 μM Fura2-AM (Invitrogen) with 0.2% pluronic (Invitrogen) in assay buffer in the dark at room temperature. The cells were then washed with assay buffer and allowed to equilibrate at room temperature for 30 min prior to imaging. At the start of the imaging session for each dish, cells were replaced with DMSO-assay buffer. After 50 seconds of imaging, assay buffer was aspirated by hand, and replaced with 100 μM optovin dissolved in the DMSO-assay buffer solution. […]

[3] = molecular target: T2, hTRPA1 C621S (Homo sapiens, UniProt O75762, C621S); assay: Calcium imaging of transfected HEK cells; format: cell-based; conditions: compared with WT channels
T2 construct: expressed in transfected cells; host or cells: HEK293
Experimental: as §1, §2

[4] = molecular target: T3, hTRPA1 C633S (Homo sapiens, UniProt O75762, C633S); assay: Calcium imaging of transfected HEK cells; format: cell-based; conditions: compared with WT channels
T3 construct: expressed in transfected cells; host or cells: HEK293
Experimental: as §1, §2

T2 sequence (O75762 whole entry C621S): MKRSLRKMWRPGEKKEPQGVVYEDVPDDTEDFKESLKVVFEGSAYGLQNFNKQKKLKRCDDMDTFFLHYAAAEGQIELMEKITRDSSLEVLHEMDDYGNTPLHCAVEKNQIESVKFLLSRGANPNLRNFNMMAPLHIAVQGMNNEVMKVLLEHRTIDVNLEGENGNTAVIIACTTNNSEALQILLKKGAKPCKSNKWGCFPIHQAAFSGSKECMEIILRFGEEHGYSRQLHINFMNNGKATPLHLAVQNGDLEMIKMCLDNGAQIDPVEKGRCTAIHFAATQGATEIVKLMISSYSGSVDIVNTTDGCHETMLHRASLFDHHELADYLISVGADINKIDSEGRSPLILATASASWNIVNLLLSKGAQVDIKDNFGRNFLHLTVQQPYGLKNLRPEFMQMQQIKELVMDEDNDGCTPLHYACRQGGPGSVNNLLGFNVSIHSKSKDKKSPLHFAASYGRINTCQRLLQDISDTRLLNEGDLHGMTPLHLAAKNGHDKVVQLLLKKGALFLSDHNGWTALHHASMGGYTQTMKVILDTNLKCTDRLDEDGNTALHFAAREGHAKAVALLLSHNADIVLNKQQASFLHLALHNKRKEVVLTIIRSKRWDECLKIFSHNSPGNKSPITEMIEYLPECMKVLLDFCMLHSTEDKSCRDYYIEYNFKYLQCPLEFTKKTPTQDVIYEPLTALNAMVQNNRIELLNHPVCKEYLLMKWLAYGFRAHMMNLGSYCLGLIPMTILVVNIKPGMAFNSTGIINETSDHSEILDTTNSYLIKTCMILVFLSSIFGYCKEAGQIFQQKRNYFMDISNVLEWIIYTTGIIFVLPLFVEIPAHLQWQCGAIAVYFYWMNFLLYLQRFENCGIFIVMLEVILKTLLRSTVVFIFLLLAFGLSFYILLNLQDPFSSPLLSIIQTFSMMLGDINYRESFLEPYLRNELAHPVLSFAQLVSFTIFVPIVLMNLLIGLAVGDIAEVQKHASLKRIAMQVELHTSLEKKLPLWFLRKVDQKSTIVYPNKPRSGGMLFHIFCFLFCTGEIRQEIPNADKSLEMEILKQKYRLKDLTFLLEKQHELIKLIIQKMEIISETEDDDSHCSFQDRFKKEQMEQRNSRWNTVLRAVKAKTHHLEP
T1 sequence (O75762 whole entry C633S/C856S): as the sequence (O75762 whole entry C621S) above, with S621C, C633S, C856S counted along it
T3 sequence (O75762 whole entry C633S): as the sequence (O75762 whole entry C621S) above, with S621C, C633S counted along it

Cc1cc(/C=C2/SC(=S)NC2=O)c(C)n1-c1cccnc1 [optovin]
differences in appearance, touch response, heart rate, fin movements, morphology or percentage survival vs untreated ([1]; 10 μM for 96 hours, larvae and adult zebrafish): No differences were identified | survival rates ([1]; 10 μM, larval or adult zebrafish): does not affect survival rates | signs of toxicity ([1]; after 48 hours of treatment): No signs of toxicity were observed | response to light and optovin (intracellular calcium) [2]: significantly decreased response | response to light and optovin (intracellular calcium) [3]: significantly decreased response | response to light and optovin (intracellular calcium) [4]: significantly decreased response
